These results are taken from patent publication US12492193B2, “Pyrazole derivatives for the treatment of cystic fibrosis” (Fondazione Istituto Italiano Di Tecnologia, priority 2017, dated 2025).

The experiment deals with T1, mutant CFTR (Homo sapiens, UniProt P13569, DEL508-508).
T1 construct: expressed in transfected cells
In words: Fluorescence (HS-YFP) assay for CFTR activity, corrector assay. As to conditions: CFBE41o- and FRT cells with stable expression of mutant CFTR, 24 h compound treatment. The experiment is classed as cell-based. The gist of the method: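 CFBE41o- or FRT cells stably expressing mutant CFTR and HS-YFP were exposed to compounds for 24 h (corrector mode), then stimulated 30 min at 37° C with forskolin (20 μM) plus genistein (50 μM). YFP quenching after 100 mM iodide injection; initial slope from exponential fit of final 10 s; EC50 reported.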

As usually defined, the EC50 is the concentration at which the effect is half-maximal.

T1 sequence (P13569 with tags, fused parts or gaps DEL508-508): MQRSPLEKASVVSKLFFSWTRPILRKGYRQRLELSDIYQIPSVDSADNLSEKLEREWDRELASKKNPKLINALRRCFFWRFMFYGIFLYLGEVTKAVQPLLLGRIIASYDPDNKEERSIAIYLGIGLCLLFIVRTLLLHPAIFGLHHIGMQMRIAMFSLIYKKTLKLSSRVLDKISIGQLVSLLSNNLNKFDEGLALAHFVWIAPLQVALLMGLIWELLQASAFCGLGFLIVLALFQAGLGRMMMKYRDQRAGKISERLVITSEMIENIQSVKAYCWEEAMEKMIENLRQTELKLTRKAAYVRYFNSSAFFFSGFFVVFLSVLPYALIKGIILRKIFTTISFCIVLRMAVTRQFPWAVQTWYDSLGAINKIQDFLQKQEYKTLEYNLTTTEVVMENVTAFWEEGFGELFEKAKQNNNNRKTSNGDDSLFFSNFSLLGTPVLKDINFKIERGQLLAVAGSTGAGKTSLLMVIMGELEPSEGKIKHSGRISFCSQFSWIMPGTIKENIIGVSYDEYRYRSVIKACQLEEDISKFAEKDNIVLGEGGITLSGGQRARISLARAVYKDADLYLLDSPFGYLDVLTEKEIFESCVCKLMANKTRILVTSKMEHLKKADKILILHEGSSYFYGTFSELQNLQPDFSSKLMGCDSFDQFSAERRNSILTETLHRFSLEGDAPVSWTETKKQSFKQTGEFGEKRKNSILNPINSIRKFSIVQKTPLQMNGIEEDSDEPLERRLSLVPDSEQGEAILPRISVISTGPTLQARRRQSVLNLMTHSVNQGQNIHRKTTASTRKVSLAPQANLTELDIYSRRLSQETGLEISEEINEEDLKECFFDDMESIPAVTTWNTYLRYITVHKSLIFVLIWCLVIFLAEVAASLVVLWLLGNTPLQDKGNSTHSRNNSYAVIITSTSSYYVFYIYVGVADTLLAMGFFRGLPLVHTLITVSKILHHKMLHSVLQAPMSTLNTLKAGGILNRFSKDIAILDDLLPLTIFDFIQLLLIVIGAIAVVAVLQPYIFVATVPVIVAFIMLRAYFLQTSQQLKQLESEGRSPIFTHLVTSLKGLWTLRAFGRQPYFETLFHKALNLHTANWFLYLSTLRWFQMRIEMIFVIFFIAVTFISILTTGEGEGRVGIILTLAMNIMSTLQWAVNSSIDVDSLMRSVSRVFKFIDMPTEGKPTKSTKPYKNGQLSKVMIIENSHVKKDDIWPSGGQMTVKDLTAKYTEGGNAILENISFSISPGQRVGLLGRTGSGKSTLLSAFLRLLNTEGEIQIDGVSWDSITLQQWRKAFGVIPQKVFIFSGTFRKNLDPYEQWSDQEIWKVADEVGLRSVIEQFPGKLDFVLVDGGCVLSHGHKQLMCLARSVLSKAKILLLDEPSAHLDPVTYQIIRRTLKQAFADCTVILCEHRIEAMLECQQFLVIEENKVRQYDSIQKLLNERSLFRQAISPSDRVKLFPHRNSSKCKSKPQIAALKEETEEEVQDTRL

In the case of `CN(C(=O)c1cccc(-n2nc(C(F)(F)F)c(Cl)c2OCc2ccc(C(=O)O)cc2)c1)c1ccc2c(c1)OCO2` [compound 159, 4-[[2-[3-[1,3-Benzodioxol-5-yl(methyl)carbamoyl]phenyl]-4-chloro-5-(trifluoromethyl)pyrazol-3-yl]oxymethyl]benzoic acid], the EC50 was less than 1 µM. As for `Cc1c(Cl)c(C(F)(F)F)nn1-c1cccc(C(=O)N(C)c2cc3c(cc2C=O)OCO3)c1` [compound 161, 3-[4-chloro-5-methyl-3-(trifluoromethyl)pyrazol-1-yl]-N-(6-formyl-1,3-benzodioxol-5-yl)-N-methyl-benzamide], the figure is 1 to 2 µM; as for `Cc1c(Cl)c(C(F)(F)F)nn1-c1cccc(C(=O)Nc2cc3c(cc2C#N)OCO3)c1` [compound 162, 3-[4-chloro-5-methyl-3-(trifluoromethyl)pyrazol-1-yl]-N-(6-cyano-1,3-benzodioxol-5-yl)benzamide], greater than 2 µM; as for `Cc1c(Cl)c(C(F)(F)F)nn1-c1cccc(C(=O)N(C)c2cc3c(cc2C#N)OCO3)c1` [compound 163, 3-[4-chloro-5-methyl-3-(trifluoromethyl)pyrazol-1-yl]-N-(6-cyano-1,3-benzodioxol-5-yl)-N-methyl-benzamide], less than 1 µM. As for `CN(C(=O)c1cccc(-n2nc(C(F)(F)F)cc2-c2ccc(Cl)s2)c1)c1ccc2c(c1)OCO2` [compound 164, N-(1,3-Benzodioxol-5-yl)-3-[5-(5-chloro-2-thienyl)-3-(trifluoromethyl)pyrazol-1-yl]-N-methyl-benzamide], the 50% effective concentration (EC50) was less than 1 µM.

For the molecule `O=C(Nc1ccc2c(c1)OCO2)c1cccc(-n2nc(C(F)(F)F)c(Cl)c2C2CC2)c1` [compound 165, N-(1,3-Benzodioxol-5-yl)-3-[4-chloro-5-cyclopropyl-3-(trifluoromethyl)pyrazol-1-yl]benzamide], the EC50 was greater than 2 µM. The same measure for `CN(C(=O)c1cccc(-n2nc(C(F)(F)F)cc2-c2cccs2)c1)c1ccc2c(c1)OCO2` [compound 166, N-(1,3-Benzodioxol-5-yl)-N-methyl-3-[5-(2-thienyl)-3-(trifluoromethyl)pyrazol-1-yl]benzamide]: less than 1 µM; for `Cc1c(Cl)c(C(F)(F)F)nn1-c1cccc(C(=O)N(C)c2cc3c(cc2CO)OCO3)c1` [compound 168, 3-[4-chloro-5-methyl-3-(trifluoromethyl)pyrazol-1-yl]-N-[6-(hydroxymethyl)-1,3-benzodioxol-5-yl]-N-methyl-benzamide]: 1 to 2 µM. As for `Cc1cc(C(F)(F)F)n(-c2cc(C(=O)N(C)c3ccc4c(c3)OCO4)ccn2)n1` [compound 169, N-(1,3-Benzodioxol-5-yl)-N-methyl-2-[3-methyl-5-(trifluoromethyl)pyrazol-1-yl]pyridine-4-carboxamide], the figure is greater than 2 µM.

On to `Cc1nn(-c2cc(C(=O)N(C)c3ccc4c(c3)OCO4)ccn2)c(C(F)(F)F)c1Cl` [compound 170, N-(1,3-Benzodioxol-5-yl)-2-[4-chloro-3-methyl-5-(trifluoromethyl)pyrazol-1-yl]-N-methyl-pyridine-4-carboxamide], for which the half-maximal effective concentration (EC50) is greater than 2 µM. As for `Cc1c(Cl)c(C(F)(F)F)nn1-c1cc(C(=O)N(C)c2ccc3c(c2)OCO3)ccn1` [compound 171, N-(1,3-Benzodioxol-5-yl)-2-[4-chloro-5-methyl-3-(trifluoromethyl)pyrazol-1-yl]-N-methyl-pyridine-4-carboxamide], the figure is less than 1 µM; as for `Cc1nc2ccc(NC(=O)c3cccc(-n4nc(C(F)(F)F)c(Cl)c4COc4ccc(C(=O)OC(C)(C)C)cc4)c3)cn2n1` [compound 173, tert-Butyl 4-[[4-chloro-2-[3-[(2-methyl-[1,2,4]triazolo[1,5-a]pyridin-6-yl)carbamoyl]phenyl]-5-(trifluoromethyl)pyrazol-3-yl]methoxy]benzoate], greater than 2 µM. In the case of `O=C(O)c1ccc(OCc2c(Cl)c(C(F)(F)F)nn2-c2cccc(C(=O)Nc3ccc4c(c3)OC(F)(F)O4)c2)cc1` [compound 174, 4-[[4-Chloro-2-[3-[(2,2-difluoro-1,3-benzodioxol-5-yl)carbamoyl]phenyl]-5-(trifluoromethyl)pyrazol-3-yl]methoxy] benzoic acid], the EC50 was greater than 2 µM.

With `CN(C(=O)c1cccc(-n2nc(C(F)(F)F)c(Cl)c2COc2ccc(C(=O)OC(C)(C)C)cc2)c1)c1ccc2c(c1)OC(F)(F)O2` [compound 175, Tert-butyl 4-[[4-chloro-2-[3-[(2,2-difluoro-1,3-benzodioxol-5-yl)-methyl-carbamoyl]phenyl]-5-(trifluoromethyl)pyrazol-3-yl]methoxy]benzoate], the 50% effective concentration (EC50) was less than 1 µM.

Take `CN(C(=O)c1cccc(-n2nc(C(F)(F)F)cc2-c2ccccc2C(F)(F)F)c1)c1ccc2c(c1)OCO2` [compound 176, N-(1,3-Benzodioxol-5-yl)-N-methyl-3-[3-(trifluoromethyl)-5-[2-(trifluoromethyl)phenyl]pyrazol-1-yl]benzamide]: the EC50 is less than 1 µM.

Turning to `CN(C(=O)c1cccc(-n2nc(C(F)(F)F)c(Cl)c2COc2ccc(C(=O)O)cc2)c1)c1ccc2c(c1)OC(F)(F)O2` [compound 177, 4-[[4-chloro-2-[3-[(2,2-difluoro-1,3-benzodioxol-5-yl)-methyl-carbamoyl]phenyl]-5-(trifluoromethyl)pyrazol-3-yl]methoxy]benzoic acid], the EC50 was less than 1 µM.

Regarding `Cc1c(Cl)c(C(F)(F)F)nn1-c1cccc(C(=O)N(C)c2cc3c(cc2C(=O)O)OCO3)c1` [compound 179, 6-[[3-[4-chloro-5-methyl-3-(trifluoromethyl)pyrazol-1-yl]benzoyl]-methyl-amino]-1,3-benzodioxole-5-carboxylic acid], the EC50 is greater than 2 µM.

Consider `CN(C(=O)c1cccc(-n2nc(C(F)(F)F)c(C=O)c2Oc2ccccc2)c1)c1ccc2c(c1)OCO2` [compound 180, N-(1,3-Benzodioxol-5-yl)-3-[4-formyl-5-phenoxy-3-(trifluoromethyl)pyrazol-1-yl]-N-methyl-benzamide], for which the half-maximal effective concentration (EC50) is less than 1 µM. As for `[2H]C([2H])([2H])N(C(=O)c1cccc(-n2nc(C(F)(F)F)c(Cl)c2COc2ccc(C(=O)OC(C)(C)C)cc2)c1)c1ccc2c(c1)OC(F)(F)O2` [compound 181, Tert-butyl 4-[[4-chloro-2-[3-[(2,2-difluoro-1,3-benzodioxol-5-yl)-(trideuteriomethyl)carbamoyl]phenyl]-5-(trifluoromethyl)pyrazol-3-yl]methoxy]benzoate], the EC50 is less than 1 µM. As for `[2H]C([2H])([2H])N(C(=O)c1cccc(-n2nc(C(F)(F)F)c(Cl)c2COc2ccc(C(=O)O)cc2)c1)c1ccc2c(c1)OC(F)(F)O2` [compound 182, 4-[[4-Chloro-2-[3-[(2,2-difluoro-1,3-benzodioxol-5-yl)-(trideuteriomethyl)carbamoyl]phenyl]-5-(trifluoromethyl)pyrazol-3-yl]methoxy]benzoic acid], the figure is less than 1 µM; as for `COc1ccccc1-c1c(Cl)c(C(F)(F)F)nn1-c1cccc(C(=O)N(C)c2ccc3c(c2)OCO3)c1` [compound 183, N-(1,3-Benzodioxol-5-yl)-3-[4-chloro-5-(2-methoxyphenyl)-3-(trifluoromethyl)pyrazol-1-yl]-N-methyl-benzamide], less than 1 µM. As for `COc1ccccc1-c1cc(C(F)(F)F)nn1-c1cccc(C(=O)N(C)c2ccc3c(c2)OCO3)c1` [compound 184, N-(1,3-Benzodioxol-5-yl)-3-[5-(2-methoxyphenyl)-3-(trifluoromethyl)pyrazol-1-yl]-N-methyl-benzamide], the 50% effective concentration (EC50) is less than 1 µM.
